Data published in BindingDB's records for doi:10.1021/jm0003945 (Vrije Universiteit, 2001).

Target: T1, Adenosine receptor A2b (Homo sapiens, UniProt P29275)
T1 sequence (P29275 whole entry): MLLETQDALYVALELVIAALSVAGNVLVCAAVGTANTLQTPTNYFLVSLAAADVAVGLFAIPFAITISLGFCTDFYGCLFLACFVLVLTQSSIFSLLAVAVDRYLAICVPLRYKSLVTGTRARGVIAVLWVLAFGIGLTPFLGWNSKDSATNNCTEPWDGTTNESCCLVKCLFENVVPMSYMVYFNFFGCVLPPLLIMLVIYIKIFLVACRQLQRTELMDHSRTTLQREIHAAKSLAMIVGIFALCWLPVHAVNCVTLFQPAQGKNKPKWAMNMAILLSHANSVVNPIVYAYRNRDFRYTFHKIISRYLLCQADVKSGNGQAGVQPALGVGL
Test: Percent displacement of [3H]DPCPX binding in human adenosine A2B receptor expressed in COS-7 cells

## COc1ccccc1NC(=O)Nc1nc(-c2cccnc2)nc2ccccc12 [VUF-5574]
  Ki: 10 µM
